Patent EP4813991A1 (iLeadBMS Co., Ltd., priority 2023, dated 2025)

Experiments:
Format in all cases: cell-based
A427 cells = experiment: Lung cancer cell proliferation inhibitory activity, A427; details: Homo sapiens, A-427; 72 hours, Cell Counting Kit-8, relative IC50
Description: (§1) Experiments were performed using three types of lung cancer cell lines to measure the cell proliferation inhibitory ability of the compounds of the present invention. NCI-H23 and NCI-H358 cells were dispensed into a 96-well plate at 100 µL of cell suspension per well using RPM11640 medium containing 10 % FBS and 1 % PS, followed by incubation in a cell incubator at 37 °C and 5 % CO2. A427 cells were dispensed into a 96-well plate at 100 µL of cell suspension per well using DMEM medium containing 10 % FBS and 1 % PS, followed by incubation in a cell incubator at 37 °C and 5 % CO2. The next day, each Example compound (such as Example 8) dissolved and diluted in DMSO across 10 concentration ranges and a DMSO control group were treated on the cells for 72 hours. After completion of the compound treatment, 10 µL of Cell Counting Kit-8 (Dojindo) reagent was added to each well of the 96-well plate, followed by incubation for 2 hours. After inserting the 96-well plate into an Envision plate reader […], luminescence signals were measured. Relative IC50 values were calculated by fitting a dose-response curve using Graphpad PRISM software.
(§2) The lung cancer cell proliferation inhibitory activities of the Example compounds measured by the method described above were evaluated according to the following criteria, and the results are presented in Table 17.

[1] = system: Gemcitabine resistant-MIA-PaCa2 cells; experiment: Pancreatic cancer cell proliferation inhibitory activity, Gemcitabine resistant-MIA-PaCa2; details: 72 hours, Cell Counting Kit-8, relative IC50
Description: Experiments were performed using three types of pancreatic cancer cell lines to measure the cell proliferation inhibitory ability of the compounds of the present invention. AsPC-1, MIA-PaCa2-Control, and Gemcitabine resistant-MIA-PaCa2 cells were dispensed into a 96-well plate at 100 uL of cell suspension per well using DMEM medium containing 10 % FBS and 1 % PS, followed by incubation in a cell incubator at 37 °C and 5 % CO2. The next day, the compound of Example 8 dissolved and diluted in DMSO across 10 concentration ranges and a DMSO control group were treated on the cells for 72 hours. After completion of the compound treatment, 10 µL of Cell Counting Kit-8 (Dojindo) reagent was added to each well of the 96-well plate, followed by incubation for 2 hours. […] were measured after inserting the 96-well plate into an Envision plate reader […]. Relative IC50 values were calculated by fitting a dose-response curve using Graphpad PRISM software.
The pancreatic cancer cell proliferation inhibitory activities of the Example compounds measured by the method described above were evaluated according to the following criteria, and the results are presented in Table 18.

NCI-H23 = experiment: Lung cancer cell proliferation inhibitory activity, NCI-H23; details: Homo sapiens, 72 hours, Cell Counting Kit-8, relative IC50
Description: as §1, §2

DLD-1 = experiment: Colorectal cancer cell proliferation inhibitory activity, DLD-1; details: Homo sapiens, 72 hours, Cell Counting Kit-8, relative IC50
Description: (§3) Experiments were performed using seven types of colorectal cancer cell lines to measure the cell proliferation inhibitory ability of each Example compound. DLD-1, LoVo, SW620, SW480, HCT116, HCT15, and HT29 cells were dispensed into a 96-well plate at 100 µL of cell suspension per well using RPMI1640 medium containing 10 % FBS and 1 % PS, followed by incubation in a cell incubator at 37 °C and 5 % CO2. The next day, each Example compound dissolved and diluted in DMSO across 10 concentration ranges and a DMSO control group were treated on the cells for 72 hours. After completion of the compound treatment, 10 µL of Cell Counting Kit-8 (Dojindo) reagent was added to each well of the 96-well plate, followed by incubation for 2 hours. […] were measured after inserting the 96-well plate into an Envision plate reader […]. Relative IC50 values were calculated by fitting a dose-response curve using Graphpad PRISM software.
(§4) The colorectal cancer cell proliferation inhibitory activities of the Example compounds measured by the method described above were evaluated according to the following criteria, and the results are presented in Table 19.

SNU601 = experiment: Gastric cancer cell proliferation inhibitory activity (Cell Counting Kit-8), SNU601; details: SNU-601; 72 hours, Cell Counting Kit-8, relative IC50
Description: as §3, with “six” for “seven”, “gastric” for “colorectal”, “NCI-N87, SNU601, KATO-III, MKN1,” for “DLD-1, LoVo, SW620, SW480, HCT116, HCT15,”, “AGS” for “HT29”, “RPMI1640 medium containing 10 % FBS and 1 % PS, followed by incubation in a cell incubator at 37 °C and 5 % CO2. HS746T cells were dispensed into a 96-well plate at 100 µL of cell suspension per well using DMEM” for “RPMI1640”
(§5) The gastric cancer cell proliferation inhibitory activities of the Example compounds measured by the method described above were evaluated according to the following criteria, and the results are presented in Table 20.

LoVo = experiment: Colorectal cancer cell proliferation inhibitory activity, LoVo; details: Homo sapiens, 72 hours, Cell Counting Kit-8, relative IC50
Description: as §3, §4

KATO-III = experiment: Gastric cancer cell proliferation inhibitory activity (Cell Counting Kit-8), KATO-III; details: Homo sapiens, 72 hours, Cell Counting Kit-8, relative IC50
Description: as §3, with “six” for “seven”, “gastric” for “colorectal”, “NCI-N87, SNU601, KATO-III, MKN1,” for “DLD-1, LoVo, SW620, SW480, HCT116, HCT15,”, “AGS” for “HT29”, “RPMI1640 medium containing 10 % FBS and 1 % PS, followed by incubation in a cell incubator at 37 °C and 5 % CO2. HS746T cells were dispensed into a 96-well plate at 100 µL of cell suspension per well using DMEM” for “RPMI1640”
as §5

- IC50 (A427 cells): ≤ 200 nM
- IC50 [1]: ≤ 200 nM
- IC50 (NCI-H23): ≤ 200 nM
- IC50 (DLD-1): ≤ 200 nM
- IC50 (SNU601): ≤ 200 nM
- IC50 (LoVo): ≤ 200 nM
- IC50 (KATO-III): ≤ 200 nM
SMILES: CN1CCN(c2cc(NCc3nc4ccc(F)c(F)c4[nH]3)c3ncc(C(F)(F)F)n3n2)CC1 [Example 8, N-((6,7-difluoro-1H-benzo[d]imidazol-2-yl)methyl)-6-(4-methylpiperazin-1-yl)-3-(trifluoromethyl)imidazo[1,2-b]pyridazin-8-amine]
